In PubChem BioAssay (NCI):
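Tested at 5 concentrations; 48 h exposure; 96-well plates; endpoints linearly interpolated, else capped at highest concentration. GI50 = concentration required for 50% inhibition of growth. Definition used: TGI = concentration required for complete inhibition of growth.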

Key:
Assay in all cases: inhibition of tumour cell growth, NCI panel, 48 h
[1] = test system: 786-0 renal
[2] = test system: A498 renal
[3] = test system: A549 NSCLC
[4] = test system: ACHN renal
[5] = test system: BT-549 breast
[6] = test system: CAKI-1 renal
[7] = test system: CCRF-CEM leukemia
[8] = test system: COLO 205 colon
[9] = test system: DU-145 prostate
[10] = test system: EKVX NSCLC
[11] = test system: HCC-2998 colon
[12] = test system: HCT-116 colon
[13] = test system: HCT-15 colon
[14] = test system: HL-60(TB) leukemia
[15] = test system: HOP-62 NSCLC
[16] = test system: HOP-92 NSCLC
[17] = test system: HS 578T breast
[18] = test system: HT29 colon
[19] = test system: IGROV1 ovarian
[20] = test system: K-562 leukemia
[21] = test system: KM12 colon
[22] = test system: LOX IMVI melanoma
[23] = test system: M14 melanoma
[24] = test system: MALME-3M melanoma
[25] = test system: MCF7 breast
[26] = test system: MDA-MB-231 breast
[27] = test system: MDA-MB-435
[28] = test system: MDA-MB-468 breast
[29] = test system: MOLT-4 leukemia
[30] = test system: NCI-H226 lung
[31] = test system: NCI-H23 lung
[32] = test system: NCI-H460 lung
[33] = test system: NCI-H522 lung
[34] = test system: NCI/ADR-RES ovarian
[35] = test system: OVCAR-3 ovarian
[36] = test system: OVCAR-4 ovarian
[37] = test system: OVCAR-5 ovarian
[38] = test system: OVCAR-8 ovarian
[39] = test system: PC-3 prostate
[40] = test system: RPMI-8226 leukemia
[41] = test system: RXF 393 renal
[42] = test system: SF-268 CNS
[43] = test system: SF-295 CNS
[44] = test system: SF-539 CNS
[45] = test system: SK-MEL-2 melanoma
[46] = test system: SK-MEL-28 melanoma
[47] = test system: SK-MEL-5 melanoma
[48] = test system: SK-OV-3 ovarian
[49] = test system: SN12C renal
[50] = test system: SNB-19 CNS
[51] = test system: SNB-75 CNS
[52] = test system: SR leukemia
[53] = test system: SW-620 colon
[54] = test system: T-47D breast
[55] = test system: TK-10 renal
[56] = test system: U251 CNS
[57] = test system: UACC-257 melanoma
[58] = test system: UACC-62 melanoma
[59] = test system: UO-31 renal

## O=C(Cn1c(-c2ccccc2)nc2ccccc21)N=Nc1c(O)[nH]c2ccc(Cl)cc12
[1]
  GI50: 17.9 µM
  TGI: 39 µM
[2]
  GI50: 13.6 µM
  TGI: 27.3 µM
[3]
  GI50: 13.6 µM
  TGI: 30.8 µM
[4]
  GI50: 16 µM
  TGI: 34 µM
[5]
  GI50: 16.7 µM
  TGI: 35.7 µM
[6]
  GI50: 13.5 µM
  TGI: 27 µM
[7]
  GI50: 20 µM
  TGI: > 100 µM
[8]
  GI50: 21 µM
  TGI: 47.9 µM
[9]
  GI50: 18.4 µM
  TGI: 40.2 µM
[10]
  GI50: 11 µM
  TGI: 25.6 µM
[11]
  GI50: 13.4 µM
  TGI: 27.5 µM
[12]
  GI50: 10 µM
  TGI: 29.3 µM
[13]
  GI50: 9.6 µM
  TGI: 24 µM
[14]
  GI50: 24 µM
  TGI: > 100 µM
[15]
  GI50: 17.2 µM
  TGI: 37.7 µM
[16]
  GI50: 13.6 µM
  TGI: 31.4 µM
[17]
  GI50: 16.5 µM
  TGI: 49.6 µM
[18]
  GI50: 14.7 µM
  TGI: 30.7 µM
[19]
  GI50: 14.4 µM
  TGI: 29.9 µM
[20]
  GI50: 6.91 µM
  TGI: > 100 µM
[21]
  GI50: 19.2 µM
  TGI: 62.2 µM
[22]
  GI50: 14.5 µM
  TGI: 28.6 µM
[23]
  GI50: 17.7 µM
  TGI: 40.4 µM
[24]
  GI50: 12.2 µM
  TGI: 25.5 µM
[25]
  GI50: 10.9 µM
  TGI: 25.2 µM
[26]
  GI50: 11.9 µM
  TGI: 24.9 µM
[27]
  GI50: 9.18 µM
  TGI: 26 µM
[28]
  GI50: 5.77 µM
  TGI: 18.9 µM
[29]
  GI50: 6.41 µM
  TGI: > 100 µM
[30]
  GI50: 12.1 µM
  TGI: 30.2 µM
[31]
  GI50: 13.7 µM
  TGI: 28.2 µM
[32]
  GI50: 15.4 µM
  TGI: 33 µM
[33]
  GI50: 10.3 µM
  TGI: 25.1 µM
[34]
  GI50: 12.8 µM
  TGI: 29.7 µM
[35]
  GI50: 16.1 µM
  TGI: 37.2 µM
[36]
  GI50: 15.3 µM
  TGI: 34.2 µM
[37]
  GI50: 18.8 µM
  TGI: 48 µM
[38]
  GI50: 16.1 µM
  TGI: 34.5 µM
[39]
  GI50: 12.7 µM
  TGI: 33.8 µM
[40]
  GI50: 20.5 µM
  TGI: > 100 µM
[41]
  GI50: 4.99 µM
  TGI: 18.6 µM
[42]
  GI50: 16.1 µM
  TGI: 47.9 µM
[43]
  GI50: 12.3 µM
  TGI: 26.1 µM
[44]
  GI50: 14.7 µM
  TGI: 30.5 µM
[45]
  GI50: 17.4 µM
  TGI: 36.5 µM
[46]
  GI50: 14.4 µM
  TGI: 30.2 µM
[47]
  GI50: 14.6 µM
  TGI: 31.3 µM
[48]
  GI50: 19.3 µM
  TGI: 38.2 µM
[49]
  GI50: 15.5 µM
  TGI: 31.1 µM
[50]
  GI50: 16.7 µM
  TGI: 33.7 µM
[51]
  GI50: 10.3 µM
  TGI: 23.6 µM
[52]
  GI50: 8.56 µM
  TGI: > 100 µM
[53]
  GI50: 15.5 µM
  TGI: 37.7 µM
[54]
  GI50: 11.6 µM
  TGI: 30 µM
[55]
  GI50: 17.5 µM
  TGI: 35.6 µM
[56]
  GI50: 16.9 µM
  TGI: 33.4 µM
[57]
  GI50: 14.1 µM
  TGI: 28.6 µM
[58]
  GI50: 12.4 µM
  TGI: 25.5 µM
[59]
  GI50: 11.4 µM
  TGI: 24.1 µM
